Test results as given in US20080262228A1, “Metabolites of 5-fluoro-8- quinoline and methods of preparation and uses thereof” (Wyeth, priority 2006, published 2008).
Several values for one entry are separate records, joined by “and”; a condition that tells them apart may be missing. Equal values may be shown once. Marks after values point to notes of the source that are not given here.

Assay: In vivo metabolism of [14C]COMPOUND I in Sprague-Dawley rats, single oral 5 mg/kg dose
Parameters: species or system rat
Conditions: 5 mg/kg oral
[1] = female rats, 1 hr, individual rats, 5 mg/kg
[2] = female rats, 1 hr, mean ± SD, 5 mg/kg
[3] = female rats, 3 hr, individual rats, 5 mg/kg
[4] = female rats, 3 hr, mean ± SD, 5 mg/kg
[5] = male rats, 1 hr, individual rats, 5 mg/kg
[6] = male rats, 1 hr, mean ± SD, 5 mg/kg
[7] = male rats, 3 hr, individual rats, 5 mg/kg
[8] = male rats, 3 hr, mean ± SD, 5 mg/kg
[9] = male rats, 6 hr, individual rats, 5 mg/kg
[10] = male rats, 6 hr, mean ± SD, 5 mg/kg
[11] = male rats, 24 hr, individual rats, 5 mg/kg
[12] = male rats, 24 hr, mean ± SD, 5 mg/kg

Concentration of Total Radioactivity in Whole Blood (female rats, 1 hr, mean ± SD): 633 ± 157 ng equivalents/mL
Concentration of Total Radioactivity in Whole Blood (female rats, 3 hr, mean ± SD): 273 ± 61.2 ng equivalents/mL
dose excreted in urine (male rats, 0-24 hr urine): 3.6%
Concentration of Total Radioactivity in Whole Blood (male rats, 1 hr, mean ± SD): 216 ± 42.3^a ng equivalents/mL
Concentration of Total Radioactivity in Whole Blood (male rats, 3 hr, mean ± SD): 127 ± 35.1^a ng equivalents/mL
Concentration of Total Radioactivity in Whole Blood (male rats, 6 hr, mean ± SD): 90.2 ± 24.1 ng equivalents/mL
Concentration of Total Radioactivity in Whole Blood (male rats, 24 hr, mean ± SD): 25.7 ± 2.64 ng equivalents/mL
administered radioactivity recovered in feces (male rats, first 24 hr, average): 81.9%
Structure (SMILES): COc1cc(N2CCN(C3CCN(c4ccc(F)c5cccnc45)CC3)CC2)c2ncccc2c1 [[^14C]COMPOUND I, [piperazine-^14C(U)]-5-fluoro-8-(4-(4-(6-methoxyquinolin-8-yl)piperazin-1-yl)piperidin-1-yl)quinoline trisuccinate]
Concentration of Total Radioactivity in Plasma [1]: 1274 ng equivalents/mL and 854 ng equivalents/mL and 383 ng equivalents/mL
Concentration of Total Radioactivity in Whole Blood [1]: 815 ng equivalents/mL and 549 ng equivalents/mL and 536 ng equivalents/mL
Brain Radioactivity Concentrations (female rats, 1 hr, individual, 5 mg/kg): 149 ng equivalents/g and 121 ng equivalents/g and 128 ng equivalents/g
Brain Radioactivity Concentrations [2]: 133 ng equivalents/g and 133 ± 15 ng equivalents/g
Concentration of Total Radioactivity in Plasma [2]: 837 ng equivalents/mL and 837 ± 446 ng equivalents/mL
Concentration of Total Radioactivity in Plasma [3]: 504 ng equivalents/mL and 298 ng equivalents/mL and 436 ng equivalents/mL
Concentration of Total Radioactivity in Whole Blood [3]: 326 ng equivalents/mL and 206 ng equivalents/mL and 287 ng equivalents/mL
Brain Radioactivity Concentrations (female rats, 3 hr, individual, 5 mg/kg): 54 ng equivalents/g and 30 ng equivalents/g and 61 ng equivalents/g
Brain Radioactivity Concentrations [4]: 49 ng equivalents/g and 49 ± 16 ng equivalents/g
Concentration of Total Radioactivity in Plasma [4]: 412 ng equivalents/mL and 412 ± 105 ng equivalents/mL
Concentration of Total Radioactivity in Plasma [5]: 366 ng equivalents/mL and 295 ng equivalents/mL and 887 ng equivalents/mL
Concentration of Total Radioactivity in Whole Blood [5]: 228 ng equivalents/mL and 169 ng equivalents/mL and 251 ng equivalents/mL
Brain Radioactivity Concentrations (male rats, 1 hr, individual, 5 mg/kg): 48 ng equivalents/g and 42 ng equivalents/g and 63 ng equivalents/g
Brain Radioactivity Concentrations [6]: 51 ng equivalents/g and 51 ± 11^c ng equivalents/g
Concentration of Total Radioactivity in Plasma [6]: 516 ng equivalents/mL and 516 ± 323 ng equivalents/mL
Concentration of Total Radioactivity in Plasma [7]: 172 ng equivalents/mL and 256 ng equivalents/mL and 144 ng equivalents/mL
Concentration of Total Radioactivity in Whole Blood [7]: 115 ng equivalents/mL and 166 ng equivalents/mL and 98.6 ng equivalents/mL
Brain Radioactivity Concentrations (male rats, 3 hr, individual, 5 mg/kg): 22 ng equivalents/g and 31 ng equivalents/g and 23 ng equivalents/g
Brain Radioactivity Concentrations [8]: 25 ng equivalents/g and 25 ± 4.9 ng equivalents/g
Concentration of Total Radioactivity in Plasma [8]: 191 ng equivalents/mL and 191 ± 58.3^a ng equivalents/mL
Concentration of Total Radioactivity in Plasma [9]: 112 ng equivalents/mL and 114 ng equivalents/mL and 163 ng equivalents/mL
Concentration of Total Radioactivity in Whole Blood [9]: 77.2 ng equivalents/mL and 75.5 ng equivalents/mL and 118 ng equivalents/mL
Brain Radioactivity Concentrations (male rats, 6 hr, individual, 5 mg/kg): 15 ng equivalents/g and 13 ng equivalents/g and 19 ng equivalents/g
Brain Radioactivity Concentrations [10]: 16 ng equivalents/g and 16 ± 3.2 ng equivalents/g
Concentration of Total Radioactivity in Plasma [10]: 130 ng equivalents/mL and 130 ± 28.9 ng equivalents/mL
Concentration of Total Radioactivity in Plasma [11]: 23.3 ng equivalents/mL and 24.2 ng equivalents/mL and 26.7 ng equivalents/mL
Concentration of Total Radioactivity in Whole Blood [11]: 22.8 ng equivalents/mL and 26.2 ng equivalents/mL and 28.0 ng equivalents/mL
Brain Radioactivity Concentrations (male rats, 24 hr, individual, 5 mg/kg): 7.1 ng equivalents/g and 5.3 ng equivalents/g and 6.1 ng equivalents/g
Brain Radioactivity Concentrations [12]: 6.2 ng equivalents/g and 6.2 ± 0.9 ng equivalents/g
Concentration of Total Radioactivity in Plasma [12]: 24.7 ng equivalents/mL and 24.7 ± 1.76 ng equivalents/mL
